Data as given in patent publication US10278942B2 (PELOTON THERAPEUTICS, INC., priority 2015, dated 2019).
pIC50: −log10 of the molar value. Where two headings read alike, the source gives them in different places.

How the values were obtained:
[1] = target: T1, HIF-2α HIS TAG-PASB Domain (Homo sapiens, UniProt Q99814); assay: HIF-2α Scintillation Proximity Assay (SPA); format: binding; conditions: for pIC50: read-out: Scintillation Proximity Assay IC50
T1 construct: 100 nM HIF-2α HIS TAG-PASB Domain
Procedure, shortened: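 IC50 values rest on percent inhibition, where the sample signal is scaled between high and low controls. Wells contain about 100 μL: compound dispensed as 2 μL of DMSO solution, 88 μL protein-probe mix and 10 μL of beads.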

786-O-Hif-Luc cells = assay: Luciferase Assay (HIF responsive elements reporter); conditions: read-out: Mean Luciferase EC50 (nM), 786-O-Hif-Luc cells
Method: A pool of infected cells were then selected against 2 μg/mL of puromycin (P8833, Sigma) for 10 days followed by limited dilution to select single clones. […] Each concentration was tested in triplicate. After about 24 hours, luciferase activity was determined using ONE-Glo Luciferase Assay Reagent (E6110, Promega) following the manufacturer's recommended procedure. EC50 were calculated using Dotmatics software.

T1 sequence (Q99814 240-350 limits assumed): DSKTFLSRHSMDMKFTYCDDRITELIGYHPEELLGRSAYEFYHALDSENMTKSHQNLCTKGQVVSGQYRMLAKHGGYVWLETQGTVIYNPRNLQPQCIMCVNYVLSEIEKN

| Structure (SMILES) | pIC50 [1] | EC50 (786-O-Hif-Luc cells) [nM] | IC50 ([1]; Scintillation Proximity Assay IC50 (nM)) [nM] |
| --- | --- | --- | --- |
| CS(=O)(=O)c1ccc(O[C@H]2C[C@@](F)(C#N)C2)c2c1[C@H](O)C(F)(F)[C@@H]2F [Compound 739] | > 7.30 | > 1000 | – |
| O=S(=O)(c1ccc(Oc2cc(Cl)c[n+]([O-])c2)c2c1[C@H](O)C(F)(F)C2)C(F)(F)F [Compound 260] | 6.60 to 7.30 | 50 to 249 | – |
| O=S(=O)(c1ccc(OC[C@H]2CC2(F)F)c2c1[C@H](O)C(F)(F)C2)C(F)(F)F [Compound 727] | > 7.30 | < 50 | – |
| O=S(=O)(c1ccc(O[C@H]2C[C@H](O)C2)c2c1C(O)C(F)(F)C2)C(F)(F)F (stereo partly drawn) [Compound 644] | 6.00 to 6.60 | 250 to 1000 | – |
| O=S1(=O)c2ccc(Oc3cccc4cn[nH]c34)c(C(F)F)c2C(O)C1(F)F (stereo not drawn) [Compound 441] | < 6.00 | > 1000 | – |
| N#Cc1cc(F)cc(Oc2ccc(S(=O)(=O)C(F)(F)F)cc2Br)c1 [Compound 118] | 6.60 to 7.30 | > 1000 | – |
| Cc1c(S(C)(=O)=O)ccc(Oc2cc(F)cc(F)c2)c1C#N [Compound 52] | > 7.30 | 250 to 1000 | – |
| CC(Oc1ccc(S(=O)(=O)C(F)(F)F)c2c1CC(F)(F)C2O)C1CC1 (stereo not drawn) [Compound 746] | > 7.30 | < 50 | – |
| NC(=O)C1CCc2c(OCC(F)F)ccc(C(F)(F)F)c21 (stereo not drawn) [Compound 692] | < 6.00 | > 1000 | – |
| CS(=O)(=O)c1ccc(Sc2cc(F)cc(Cl)c2)c2c1[C@H](O)C(F)(F)[C@@H]2F [Compound 491, (1S,3R)-4-((3-chloro-5-fluorophenyl)thio)-2,2,3-trifluoro-7-(methylsulfonyl)-2,3-dihydro-1H-inden-1-ol] | > 7.30 | > 1000 | – |
| Cc1c(Oc2cc(F)cc(C#N)c2)ccc(S(=O)(=O)C(F)(F)F)c1CO [Compound 146] | 6.60 to 7.30 | 250 to 1000 | – |
| O=S(=O)(c1ccc(OC2CCOC2)c2c1C(O)C(F)(F)C2)C(F)(F)F (stereo not drawn) [Compound 604] | 6.60 to 7.30 | 50 to 249 | – |
| O=S(=O)(CF)c1ccc(Oc2cncc(Cl)c2)c2c1[C@H](O)C(F)(F)C2 [Compound 187] | 6.60 to 7.30 | 50 to 249 | – |
| O=S(=O)(c1ccc(OCc2ccccc2)c2c1C(O)C(F)(F)C2)C(F)(F)F (stereo not drawn) [Compound 663] | 6.60 to 7.30 | 250 to 1000 | – |
| CS(=O)(=O)c1ccc(Oc2cc(F)cc(F)c2)c(C(F)F)c1C#N [Compound 93] | 6.60 to 7.30 | 250 to 1000 | – |
| O=S(=O)(c1ccc(Oc2cc(F)cc(F)c2)c2c1CC(O)C2)C(F)F (stereo not drawn) [Compound 22] | 6.00 to 6.60 | > 1000 | – |
| O=S(=O)(c1ccc(OCC2CCC2)c2c1[C@H](O)C(F)(F)C2)C(F)(F)F [Compound 716] | > 7.30 | < 50 | – |
| COC(=O)/C=C/c1c(S(=O)(=O)C(F)(F)F)ccc(Oc2cc(F)cc(C#N)c2)c1C [Compound 147] | 6.60 to 7.30 | > 1000 | – |
| Cc1c(S(C)(=O)=O)ccc(Oc2cc(F)cc(Cl)c2)c1C(F)F [Compound 53] | 6.00 to 6.60 | > 1000 | – |
| O=S(=O)(c1ccc(Oc2cc(F)cc(Cl)c2)c(Br)c1)C(F)F [Compound 131] | – | > 1000 | 250 to 1000 |
| O=S(=O)(c1ccc(OCc2ccccc2)c2c1[C@H](O)C(F)(F)C2)C(F)F [Compound 780] | < 6.00 | > 1000 | – |
| O=S(=O)(c1ccc(OCc2ccccn2)c2c1C(O)C(F)(F)C2)C(F)(F)F (stereo not drawn) [Compound 665] | < 6.00 | > 1000 | – |
| N#Cc1cccc(-c2ccc(S(=O)(=O)C(F)(F)F)c3c2CC(F)(F)[C@H]3O)c1 [Compound 569] | 6.60 to 7.30 | 250 to 1000 | – |
| COc1cc(F)cc(Oc2ccc3c(c2C#N)[C@@H](O)C(F)(F)S3(=O)=O)c1 [Compound 427] | 6.60 to 7.30 | > 1000 | – |
| O=S(=O)(c1ccc(OCCO)c2c1C(O)C(F)(F)C2)C(F)(F)F (stereo not drawn) [Compound 614] | 6.60 to 7.30 | > 1000 | – |
| CS(=O)(=O)c1ccc(Oc2cc(F)cc(C#N)c2)c(C(F)F)c1C#N [Compound 94] | 6.60 to 7.30 | 250 to 1000 | – |
| N#Cc1cc(Oc2ccc(S(=O)(=O)C(F)F)c3c2CC(F)(F)[C@H]3O)ccc1F [Compound 200] | > 7.30 | 50 to 249 | – |

| Structure (SMILES) | pIC50 [1] | EC50 (786-O-Hif-Luc cells) [nM] | IC50 ([1]; Scintillation Proximity Assay IC50 (nM)) [nM] |
| --- | --- | --- | --- |
| CC1(C)CCC(=O)[C@H](c2ccc(S(=O)(=O)C(F)(F)F)c3c2CC(F)(F)[C@H]3O)C1 [Compound 542] | 6.00 to 6.60 | > 1000 | – |
| O=S(=O)(c1ccc(OC2CCCC2)c2c1C(O)CC2)C(F)(F)F (stereo not drawn) [Compound 603] | 6.00 to 6.60 | > 1000 | – |
| N#Cc1cc(Oc2ccc3c(c2C(F)F)[C@@H](O)C(F)(F)S3(=O)=O)ccc1F [Compound 437] | 6.60 to 7.30 | 250 to 1000 | – |
| CCCOc1ccc(I)c2c1CC(F)(F)C2O (stereo not drawn) [Compound 682] | 6.60 to 7.30 | 250 to 1000 | – |
| CO[C@H]1C[C@H](Oc2ccc(S(=O)(=O)C(F)(F)F)c3c2CC(F)(F)[C@H]3O)C1 [Compound 714] | 6.60 to 7.30 | 250 to 1000 | – |
| O=S(=O)(c1ccc(-c2ccccc2Cl)c2c1[C@H](O)C(F)(F)C2)C(F)(F)F [Compound 565] | < 6.00 | > 1000 | – |
| CS(=O)(=O)c1ccc(OC[C@H]2C[C@H]2C#N)c2c1[C@H](O)C(F)(F)[C@@H]2F [Compound 765] | 6.00 to 6.60 | > 1000 | – |
| O=S(=O)(c1ccc(OCC2CC2)c2c1[C@H](O)C(F)(F)C2)C(F)F [Compound 781] | 6.00 to 6.60 | 50 to 249 | – |
| N#Cc1cc(F)cc(Nc2ccc(S(=O)(=O)C(F)(F)F)c3c2CCC3O)c1 (stereo not drawn) [Compound 505] | 6.00 to 6.60 | 250 to 1000 | – |
| O=S(=O)(c1ccc(Nc2cc(F)cc(F)c2)c2c1C(O)CC2)C(F)(F)F (stereo not drawn) [Compound 506] | 6.00 to 6.60 | > 1000 | – |
| N#Cc1cncc(-c2ccc(S(=O)(=O)C(F)(F)F)c3c2CC(F)(F)[C@H]3O)c1 [Compound 570] | < 6.00 | > 1000 | – |
| O[C@H]1c2c(C(F)(F)F)ccc(OCC(F)F)c2C[C@@H]1F [Compound 697] | 6.60 to 7.30 | 50 to 249 | – |
| COc1cc(F)cc(Oc2ccc3c(c2Br)[C@@H](O)C(F)(F)S3(=O)=O)c1 [Compound 426] | 6.60 to 7.30 | 250 to 1000 | – |
| O=S(=O)(c1ccc(OCC2(F)COC2)c2c1[C@H](O)C(F)(F)C2)C(F)(F)F [Compound 573] | > 7.30 | 50 to 249 | – |
| Cc1c(Oc2cc(F)cc(C#N)c2)ccc(S(=O)(=O)C(F)(F)F)c1Cl [Compound 144] | > 7.30 | 250 to 1000 | – |
| CC1(C)C[C@H](O)C[C@@H](c2ccc(S(=O)(=O)C(F)(F)F)c3c2CC(F)(F)[C@H]3O)C1 [Compound 549] | > 7.30 | 50 to 249 | – |
| O=S(=O)(c1ccc(Oc2ccc(F)c(F)c2)c2c1C(O)CC2)C(F)(F)F (stereo not drawn) [Compound 214] | 6.60 to 7.30 | > 1000 | – |
| O/N=C1/c2c(C(F)(F)F)ccc(OCC(F)F)c2CC1(F)F [Compound 580] | 6.00 to 6.60 | > 1000 | – |
| O=S(=O)(c1ccc(OC2CC3(COC3)C2)c2c1[C@H](O)C(F)(F)C2)C(F)(F)F [Compound 718] | 6.60 to 7.30 | 250 to 1000 | – |
| CC(=O)c1c(S(=O)(=O)C(F)(F)F)ccc(Oc2cc(F)cc(Cl)c2)c1Br [Compound 104] | 6.00 to 6.60 | > 1000 | – |
| OC1c2c(C(F)(F)F)ccc(OCC(F)F)c2CC1(F)F (stereo not drawn) [Compound 686] | 6.60 to 7.30 | 50 to 249 | – |
| O=S(=O)(c1ccc(Nc2cc(F)cc(F)c2)c2c1[C@H](O)CC2)C(F)(F)F [Compound 531] | 6.00 to 6.60 | 250 to 1000 | – |
| Cc1c(S(=O)(=O)C(F)F)ccc(Oc2cc(F)cc(C#N)c2)c1C#N [Compound 33] | 6.60 to 7.30 | > 1000 | – |
| O=S(=O)(c1ccc(Oc2cc(F)cc(Cl)c2)c(Cl)c1CNCCF)C(F)(F)F [Compound 114] | < 6.00 | > 1000 | – |
| CC1(C)C[C@@H](O)C[C@@H](c2ccc(S(=O)(=O)C(F)(F)F)c3c2CC(F)(F)[C@H]3O)C1 [Compound 550] | > 7.30 | 250 to 1000 | – |
| CS(=O)(=O)c1ccc(Sc2cccc(C#N)c2)c2c1[C@H](O)C(F)(F)[C@@H]2F [Compound 492, 3-(((1S,3R)-2,2,3-trifluoro-1-hydroxy-(methylsulfonyl)-2,3-dihydro-1H-inden-4-yl)thio)benzonitrile] | < 6.00 | > 1000 | – |
| C[S+]([O-])c1ccc(Oc2cc(F)cc(C#N)c2)c2c1[C@H](O)C(F)(F)C2 (stereo partly drawn) [Compound 272] | < 6.00 | > 1000 | – |
